Results reported in ChEMBL document CHEMBL5614412, “Regulation of protein phosphorylation by PTPN2 and its small-molecule inhibitors/degraders as a potential disease treatment strategy” (Eur J Med Chem, 2024).
One block for each compound: values may come before it. Starred links: 1 amine or outer side, 2 acyl side, 3 side chain; linkers in the order of their positions; H or OH if unused. Non-standard residues stand in square brackets, D forms with d. Residues, ends and D or L forms follow the SMILES beside them. ξ: configuration not given here. *: point of attachment. NHCH2(1,3-C6H4)CH2CO = O=C(Cc1cccc(CN[*:1])c1)[*:2]; ξF2Pmp = NC(Cc1ccc(C(F)(F)P(=O)(O)O)cc1)C(=O)O; Benzoyl(3-Br,4-Me) = Cc1ccc(C(=O)*)cc1Br; ξPro(4R-OH) = O=C(O)C1C[C@@H](O)CN1; X2 = Cc1ncsc1-c1ccc([C@H](C)N*)cc1; Tle = CC(C)(C)[C@H](N)C(=O)O; X1 = COc1ccc(CC(=O)*)cc1O

What was measured:
[1] = biological target: T1, Tyrosine-protein phosphatase non-receptor type 2 (Homo sapiens, UniProt P17706); assay: Inhibition of PTPN2 (unknown origin)
T1 sequence (P17706 whole entry): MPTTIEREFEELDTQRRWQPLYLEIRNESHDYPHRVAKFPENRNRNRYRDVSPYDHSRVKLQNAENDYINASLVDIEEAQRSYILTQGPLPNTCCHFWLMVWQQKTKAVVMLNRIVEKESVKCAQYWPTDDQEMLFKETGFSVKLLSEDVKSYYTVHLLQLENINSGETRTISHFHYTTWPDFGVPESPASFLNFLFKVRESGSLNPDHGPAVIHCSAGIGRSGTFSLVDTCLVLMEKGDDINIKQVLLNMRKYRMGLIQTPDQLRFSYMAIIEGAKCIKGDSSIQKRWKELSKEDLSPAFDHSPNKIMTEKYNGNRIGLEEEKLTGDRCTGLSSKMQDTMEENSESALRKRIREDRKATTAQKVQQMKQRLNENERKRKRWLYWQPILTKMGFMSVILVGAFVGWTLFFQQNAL

[2] = biological target: T2, Tyrosine-protein phosphatase non-receptor type 1 (Homo sapiens, UniProt P18031); assay: Inhibition of PTP1B (unknown origin)
T2 sequence (P18031 whole entry): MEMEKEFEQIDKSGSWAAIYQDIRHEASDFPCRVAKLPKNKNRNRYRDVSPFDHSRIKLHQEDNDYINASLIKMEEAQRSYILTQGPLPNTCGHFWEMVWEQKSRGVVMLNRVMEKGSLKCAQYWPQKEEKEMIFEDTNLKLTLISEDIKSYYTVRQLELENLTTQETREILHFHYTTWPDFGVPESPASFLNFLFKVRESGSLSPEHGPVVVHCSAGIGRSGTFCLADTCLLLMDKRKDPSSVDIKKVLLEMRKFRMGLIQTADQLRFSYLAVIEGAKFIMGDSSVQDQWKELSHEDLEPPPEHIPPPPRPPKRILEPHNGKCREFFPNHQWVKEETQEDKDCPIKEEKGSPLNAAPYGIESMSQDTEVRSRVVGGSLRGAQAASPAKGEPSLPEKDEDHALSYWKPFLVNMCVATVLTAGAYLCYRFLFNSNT

B16 = assay: Antiproliferative activity against mouse B16 cells; format: functional, cell-based
[3] = biological target: Protein cereblon/Tyrosine-protein phosphatase non-receptor type 2 (Homo sapiens, UniProt P17706+Q96SW2); assay: PROTAC activity at PTPN2/CRBN in HEK293 cells assessed as protein degradation measured for 48 hrs by Western blot analysis; format: cell-based
Homo sapiens = species: Homo sapiens; assay: Selectivity index, ratio of DC50 for PROTAC activity at PTP1B/CRBN in HEK293 cells to DC50 for PROTAC activity at PTPN2/CRBN in HEK293 cells; format: cell-based
[4] = biological target: Protein cereblon/Tyrosine-protein phosphatase non-receptor type 1 (Homo sapiens, UniProt P18031+Q96SW2); assay: PROTAC activity at PTP1B/CRBN in HEK293 cells assessed as protein degradation measured for 48 hrs by Western blot analysis; format: cell-based
[5] = Inhibition of PTP1B/PTPN2 (unknown origin) in mouse B16 cells; format: cell-based, Homo sapiens
[6] = biological target: T1, Tyrosine-protein phosphatase non-receptor type 2
Description: Inhibition of human PTPN2 extracted from Escherichia coli BL21 (DE3) by fluorescence based analysis

[7] = biological target: T1, Tyrosine-protein phosphatase non-receptor type 2; remark: listed apart in the source
Description: Inhibition of full-length human recombinant PTPN2 incubated for 20 mins by mobile shift assay

Protein cereblon/Tyrosine-protein phosphatase non-receptor type 2, sequence (Q96SW2 whole entry, one chain of several): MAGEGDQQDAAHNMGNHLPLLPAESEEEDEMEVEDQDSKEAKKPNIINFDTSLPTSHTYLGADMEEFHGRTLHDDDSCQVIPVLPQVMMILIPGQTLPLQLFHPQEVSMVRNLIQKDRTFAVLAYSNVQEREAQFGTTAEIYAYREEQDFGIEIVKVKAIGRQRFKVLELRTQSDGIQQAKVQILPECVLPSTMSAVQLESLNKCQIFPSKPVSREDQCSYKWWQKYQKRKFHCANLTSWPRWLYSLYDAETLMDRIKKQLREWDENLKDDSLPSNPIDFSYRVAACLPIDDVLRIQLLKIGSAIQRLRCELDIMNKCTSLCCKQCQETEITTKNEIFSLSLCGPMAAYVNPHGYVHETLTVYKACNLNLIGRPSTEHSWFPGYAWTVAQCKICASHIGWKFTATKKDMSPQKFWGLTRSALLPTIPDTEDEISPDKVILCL
Protein cereblon/Tyrosine-protein phosphatase non-receptor type 1, sequence (Q96SW2 whole entry, one chain of several): as above

SMILES: O=C1CN(c2c(O)cc3c(c2F)C[C@H](NCCCC(F)F)CS3)S(=O)(=O)N1
IC50 [1]: < 10 nM
IC50 [2]: < 10 nM
IC50 (B16): 160 nM

IC50 [1]: 65 nM
SMILES: CCc1cc(C[C@H](NC(C)=O)C(=O)NCCCCOc2cccc(O)c2C(=O)OC)ccc1N(C(=O)C(=O)O)c1ccccc1C(=O)O

DC50 [3]: 10 nM
SMILES: Cn1c(=O)n(C2CCC(=O)NC2=O)c2ccc(-c3ccc(CC(=O)Nc4ccc5c(F)c(N6CC(=O)NS6(=O)=O)c(O)cc5c4)cc3)cc21 (centres undefined)

SMILES: CCc1ccc(C(=O)NCCCC[C@H](NC(=O)[C@H](Cc2ccc(C(F)(F)P(=O)(O)O)cc2)NC(=O)[C@H](Cc2ccccc2)NC(=O)O[C@H]2C[C@@H](C)CC[C@@H]2C(C)C)C(=O)NCCOCCC(=O)Nc2cccc3c2CN(C2CCC(=O)NC2=O)C3=O)cc1 (some centres undefined)
DC50 [3]: 35.8 nM
Selectivity Index (Homo sapiens): > 110

DC50 [3]: 217 nM
DC50 [4]: 13100 nM
SMILES: Cc1ncsc1-c1ccc(C(C)CC(=O)[C@H]2C[C@H](O)CN2C(=O)[C@@H](NC(=O)CCCCCNC(=O)n2cc(-c3ccc4cc(O)c(N5CC(=O)NS5(=O)=O)c(F)c4c3)cn2)C(C)(C)C)cc1 (some centres undefined)
Selectivity Index (Homo sapiens): > 60

SMILES: O=C1CN(c2c(O)cc(NC(=O)NC3CCCCC3)cc2F)S(=O)(=O)N1
IC50 [1]: < 5 nM
IC50 (B16): < 5000 nM

SMILES: CC1(C)CCC[C@H](NCc2cc(O)c(N3CC(=O)NS3(=O)=O)c(F)c2)C1
IC50 (B16): 770 nM

EC50 [5]: 2650 nM
IC50 [6]: 3.9 nM
IC50 [7]: 3.9 nM
SMILES: O=C1CN(c2c(O)cc3ccc(NCC4CC4)cc3c2F)S(=O)(=O)N1

SMILES: CC[C@@H]1CCN(CCc2cc(O)c(N3CC(=O)NS3(=O)=O)c(F)c2)C1
IC50 (B16): 130 nM

SMILES: COc1ccc(CC(=O)N[C@@H](Cc2ccccc2)C(=O)NC(Cc2ccc(C(F)(F)P(=O)(O)O)cc2)C(=O)N[C@@H](CCCCNC(=O)c2ccc(C)c(Br)c2)C(=O)NCc2cccc(CC(=O)N[C@H](C(=O)N3C[C@H](O)CC3C(=O)N[C@@H](C)c3ccc(-c4scnc4C)cc3)C(C)(C)C)c2)cc1O (stereo partly drawn) (X1-F[ξF2Pmp]K(Benzoyl(3-Br,4-Me))[NHCH2(1,3-C6H4)CH2CO][Tle][ξPro(4R-OH)]-X2)
DC50 [3]: 7 nM
Selectivity Index (Homo sapiens): 2.1
DC50 [4]: 14.8 nM

SMILES: CC1CCN=C(Nc2cc(O)c(N3CC(=O)NS3(=O)=O)c(F)c2)N1 (centres undefined)
IC50 [1]: 10 nM
IC50 (B16): 5000 nM

SMILES: COc1cc(CC(=O)NC(Cc2ccccc2)C(=O)NC(Cc2ccc(C(F)(F)P(=O)(O)O)cc2)C(=O)N[C@@H](CCCCNC(=O)c2ccc(C)c(Br)c2)C(N)=O)ccc1O (some centres undefined)
IC50 [2]: 120 nM

SMILES: CC(C)CCN[C@@H]1C[C@H]2C[C@@H]1c1c2cc(O)c(N2CC(=O)NS2(=O)=O)c1F
IC50 (B16): 7820 nM

SMILES: CC(C)CCNC1CNc2cc(O)c(N3CC(=O)NS3(=O)=O)c(F)c2C1 (centres undefined)
IC50 (B16): 1400 nM

SMILES: CC(C)CCN[C@@H]1CCc2cc(O)c(N3CC(=O)NS3(=O)=O)c(F)c2C1 [OSUNPROTAFIB]
EC50 [5]: 180 nM
IC50 [6]: 1.8 nM
IC50 [7]: 1.8 nM
IC50 (B16): 64 nM

DC50 [3]: < 100 nM
SMILES: CC1(C)C[C@H](Nc2cccc(-c3sc(C(=O)O)c(OCC(=O)O)c3Cl)c2)CCN1S(=O)(=O)Cc1cccc(NC(=O)N2CCC(c3ccc4c5c(cccc35)C(=O)N4[C@@H]3CCC(=O)NC3=O)CC2)c1

SMILES: O=C1CN(c2c(O)cc3c(c2F)C[C@H](NCCC(F)F)N3)S(=O)(=O)N1
IC50 [1]: 10 nM
IC50 [2]: 10 nM
IC50 (B16): 700 nM

IC50 [1]: 7.1 nM
SMILES: N#Cc1ccc2cc(Br)c(C(F)(F)P(=O)(O)O)cc2c1
